Common to all, as to format: cell-based
Assay [1] relates to Yeasts. Nature of the assay: Biocidal effect test (MIC), yeasts. The settings on record: serial dilution, 10^4 cfu/ml, 48 hours at 30° C., nutrient broth, turbidity read visually, range over 4 yeast strains; for MIC: Saccharomyces cerevisiae, read-out: Minimal Inhibition Concentration (ppm) yeasts. On the procedure:
(§1) This test was carried out for the purpose of measuring a biocidal effect of the compounds obtained from examples 1, 3 and 4. A test material was diluted using a serial dilution method in a 96-multiwelled plate. 10^4 cfu/ml of microbes were inoculated in the diluted solution. After the microbes were cultivated for 48 hours at 30° C., MIC (Minimal Inhibition Concentration of microorganisms) was visually observed to decide whether or not microbial growth occurred from the turbidity. The growth medium was nutrient broth, DIFCO, and the strains used were as follows.
Candida albicans ATCC 10231, Rhodotorula rubra ATCC 9449, Cryptococcus neoformans ATCC 34144 and Saccharomyces cerevisiae ATCC 9763.

Assay [2] concerns Fungi. Nature of the assay: Biocidal effect test (MIC), fungi. The settings on record: serial dilution, 10^4 cfu/ml, 48 hours at 30° C., nutrient broth, turbidity read visually, range over 4 fungal strains; for MIC: read-out: Minimal Inhibition Concentration (ppm) fungi. The protocol: as §1
Penicillium citrinum ATCC 98404, Trichoderma viridae ATCC 1287, Rhizopus oryzae ATCC 10404 and Aspergillus niger ATCC 9642.

Assay [3] relates to Bacteria. Nature of the assay: Biocidal effect test (MIC), bacteria. The conditions noted are these: serial dilution, 10^4 cfu/ml, 48 hours at 30° C., nutrient broth, turbidity read visually, range over 8 bacterial strains; for MIC: read-out: Minimal Inhibition Concentration (ppm) Bacteria. The protocol: as §1
Enterobacter aerogenes ATCC 13048, Escherichia coli ATCC 11229, Micrococcus luteus ATCC 9431, Pseudomonas aeruginosa ATCC 15442, Shigella sonnei ATCC 9290, Staphylococcus epidermis ATCC 155, Staphylococcus aureus ATCC 6538 and Bacillus subtilis ATCC 6984.

Here are results for four compounds from patent US6399827B1, “Quaternary ammonium phosphate compound and method of preparing same” (SK Chemicals, priority 1997, dated 2002).

Regarding `CC(C)(C)CC(C)(C)c1ccc(OCCOCC[N+](C)(C)Cc2ccccc2)cc1.[Cl-]` [A, N-dimethyl-N-[p-(α,α,γ,γ)-tetramethylbutylphenoxy]ethoxy ethyl-N-benzyl chloride], in assay [1], the “Minimal Inhibition Concentration (ppm) yeasts” value is 12.5˜25 ppm. In assay [2], the “Minimal Inhibition Concentration (ppm) fungi” value was 25˜100 ppm. Further, the “Minimal Inhibition Concentration (ppm) Bacteria” value in assay [3] is reported as 12.5˜25 ppm.
In the case of `CCCCCCCCCCCCCC[N+]1(Cc2ccccc2)CCOCC1.Cl.N.[Cl-]` [B, 4-benzyl-4-tetradecyl morpholinium ammonium chloride], the MIC in assay [1] was 6.3 to 25 µg/mL; in assay [2], 25 to 100 µg/mL; in assay [3], 6.3 to 12.5 µg/mL.
As to `CC(C)(C)CC(C)(C)c1ccc(OCCOCC[N+](C)(C)Cc2ccccc2)cc1.O=P([O-])(O)O` [example 1, N-dimethyl-N-[p-(α,α,γ,γ)-tetramethylbutylphenoxy]ethoxy ethyl-N-benzyl ammonium phosphate], the “Minimal Inhibition Concentration (ppm) yeasts” value in assay [1] is 6.3˜12.5 ppm. For the same compound, in assay [2], the “Minimal Inhibition Concentration (ppm) fungi” value is reported as 25˜100 ppm. Further, in assay [3], the “Minimal Inhibition Concentration (ppm) Bacteria” value is 6.3˜12.5 ppm.
On to `CCCCCCCCCCCCCC[N+]1(Cc2ccccc2)CCOCC1.N.O=P([O-])(O)O` [example 4, 4-benzyl-4-tetradecyl morpholinium ammonium phosphate], for which the MIC in assay [1] lay within 12.5 to 25 µg/mL; in assay [2], 25 to 100 µg/mL; in assay [3], 6.3 to 12.5 µg/mL.
